According to PubChem BioAssay (NCI):
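How tested: cells in 96-well plates exposed to compound for 48 hours at five concentrations. At the GI50, growth is halved. At the TGI there is no net growth.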

Experiments:
Assay in all cases: NCI anticancer screen, dose series, 48 h
786-0 renal = test system: 786-0 renal
A498 renal = test system: A498 renal
A549 NSCLC = test system: A549 NSCLC
ACHN renal = test system: ACHN renal
BT-549 breast = test system: BT-549 breast
CAKI-1 renal = test system: CAKI-1 renal
CCRF-CEM leukemia = test system: CCRF-CEM leukemia
COLO 205 colon = test system: COLO 205 colon
DU-145 prostate = test system: DU-145 prostate
EKVX NSCLC = test system: EKVX NSCLC
HCC-2998 colon = test system: HCC-2998 colon
HCT-116 colon = test system: HCT-116 colon
HCT-15 colon = test system: HCT-15 colon
HL-60(TB) leukemia = test system: HL-60(TB) leukemia
HOP-62 NSCLC = test system: HOP-62 NSCLC
HOP-92 NSCLC = test system: HOP-92 NSCLC
HS 578T breast = test system: HS 578T breast
HT29 colon = test system: HT29 colon
IGROV1 ovarian = test system: IGROV1 ovarian
K-562 leukemia = test system: K-562 leukemia
KM12 colon = test system: KM12 colon
LOX IMVI melanoma = test system: LOX IMVI melanoma
M14 melanoma = test system: M14 melanoma
MALME-3M melanoma = test system: MALME-3M melanoma
MCF7 breast = test system: MCF7 breast
MDA-MB-231 breast = test system: MDA-MB-231 breast
MDA-MB-435 = test system: MDA-MB-435
MOLT-4 leukemia = test system: MOLT-4 leukemia
NCI-H226 lung = test system: NCI-H226 lung
NCI-H23 lung = test system: NCI-H23 lung
NCI-H460 lung = test system: NCI-H460 lung
NCI-H522 lung = test system: NCI-H522 lung
NCI/ADR-RES ovarian = test system: NCI/ADR-RES ovarian
OVCAR-3 ovarian = test system: OVCAR-3 ovarian
OVCAR-4 ovarian = test system: OVCAR-4 ovarian
OVCAR-5 ovarian = test system: OVCAR-5 ovarian
OVCAR-8 ovarian = test system: OVCAR-8 ovarian
PC-3 prostate = test system: PC-3 prostate
RPMI-8226 leukemia = test system: RPMI-8226 leukemia
RXF 393 renal = test system: RXF 393 renal
SF-268 CNS = test system: SF-268 CNS
SF-295 CNS = test system: SF-295 CNS
SF-539 CNS = test system: SF-539 CNS
SK-MEL-2 melanoma = test system: SK-MEL-2 melanoma
SK-MEL-28 melanoma = test system: SK-MEL-28 melanoma
SK-MEL-5 melanoma = test system: SK-MEL-5 melanoma
SK-OV-3 ovarian = test system: SK-OV-3 ovarian
SN12C renal = test system: SN12C renal
SNB-19 CNS = test system: SNB-19 CNS
SNB-75 CNS = test system: SNB-75 CNS
SW-620 colon = test system: SW-620 colon
T-47D breast = test system: T-47D breast
TK-10 renal = test system: TK-10 renal
U251 CNS = test system: U251 CNS
UACC-62 melanoma = test system: UACC-62 melanoma
UO-31 renal = test system: UO-31 renal

Question: What does the source list for COc1cc(-c2csc(NC(=O)Nc3ccc(Cl)c(C(F)(F)F)c3)n2)cc(OC)c1OC?
Answer: GI50 (786-0 renal): 2.08 µM; TGI (786-0 renal): 6.47 µM; GI50 (A498 renal): 0.26 µM; TGI (A498 renal): 1.71 µM; GI50 (A549 NSCLC): 1.38 µM; TGI (A549 NSCLC): 4.75 µM; GI50 (ACHN renal): 1.27 µM; TGI (ACHN renal): 3.57 µM; GI50 (BT-549 breast): 1.94 µM; TGI (BT-549 breast): 5.55 µM; GI50 (CAKI-1 renal): 1.37 µM; TGI (CAKI-1 renal): 3.62 µM; GI50 (CCRF-CEM leukemia): 2.24 µM; TGI (CCRF-CEM leukemia): 12.8 µM; GI50 (COLO 205 colon): 1.65 µM; TGI (COLO 205 colon): 3.46 µM; GI50 (DU-145 prostate): 1.79 µM; TGI (DU-145 prostate): 6.67 µM; GI50 (EKVX NSCLC): 1.19 µM; TGI (EKVX NSCLC): 7.03 µM; GI50 (HCC-2998 colon): 2.95 µM; TGI (HCC-2998 colon): 10.6 µM; GI50 (HCT-116 colon): 1.42 µM; TGI (HCT-116 colon): 7.93 µM; GI50 (HCT-15 colon): 1.54 µM; TGI (HCT-15 colon): 10.7 µM; GI50 (HL-60(TB) leukemia): 1.76 µM; TGI (HL-60(TB) leukemia): 6.05 µM; GI50 (HOP-62 NSCLC): 1.7 µM; TGI (HOP-62 NSCLC): 4.57 µM; GI50 (HOP-92 NSCLC): 0.357 µM; TGI (HOP-92 NSCLC): 2.22 µM; GI50 (HS 578T breast): 1.67 µM; TGI (HS 578T breast): 5.47 µM; GI50 (HT29 colon): 1.8 µM; TGI (HT29 colon): 4.68 µM; GI50 (IGROV1 ovarian): 1.83 µM; TGI (IGROV1 ovarian): 9.3 µM; GI50 (K-562 leukemia): 1.16 µM; TGI (K-562 leukemia): 11.3 µM; GI50 (KM12 colon): 0.764 µM; TGI (KM12 colon): 4.93 µM; GI50 (LOX IMVI melanoma): 1.53 µM; TGI (LOX IMVI melanoma): 3.48 µM; GI50 (M14 melanoma): 2.26 µM; TGI (M14 melanoma): 7.3 µM; GI50 (MALME-3M melanoma): 1.97 µM; TGI (MALME-3M melanoma): 5.57 µM; GI50 (MCF7 breast): 1.87 µM; TGI (MCF7 breast): 10.1 µM; GI50 (MDA-MB-231 breast): 1.47 µM; TGI (MDA-MB-231 breast): 3.93 µM; GI50 (MDA-MB-435): 1.81 µM; TGI (MDA-MB-435): 4.84 µM; GI50 (MOLT-4 leukemia): 1.13 µM; TGI (MOLT-4 leukemia): 4.35 µM; GI50 (NCI-H226 lung): 1.74 µM; TGI (NCI-H226 lung): 6.03 µM; GI50 (NCI-H23 lung): 1.47 µM; TGI (NCI-H23 lung): 6.06 µM; GI50 (NCI-H460 lung): 1.37 µM; TGI (NCI-H460 lung): 3.5 µM; GI50 (NCI-H522 lung): 1.1 µM; TGI (NCI-H522 lung): 3.57 µM; GI50 (NCI/ADR-RES ovarian): 1.5 µM; TGI (NCI/ADR-RES ovarian): 5.53 µM; GI50 (OVCAR-3 ovarian): 1.16 µM; TGI (OVCAR-3 ovarian): 3.12 µM; GI50 (OVCAR-4 ovarian): 1.15 µM; TGI (OVCAR-4 ovarian): 4.53 µM; GI50 (OVCAR-5 ovarian): 2.35 µM; TGI (OVCAR-5 ovarian): 10.5 µM; GI50 (OVCAR-8 ovarian): 1.38 µM; TGI (OVCAR-8 ovarian): 3.66 µM; GI50 (PC-3 prostate): 0.494 µM; TGI (PC-3 prostate): 3.36 µM; GI50 (RPMI-8226 leukemia): 0.573 µM; TGI (RPMI-8226 leukemia): 4.1 µM; GI50 (RXF 393 renal): 1.6 µM; TGI (RXF 393 renal): 3.9 µM; GI50 (SF-268 CNS): 2.25 µM; TGI (SF-268 CNS): 10.4 µM; GI50 (SF-295 CNS): 1.13 µM; TGI (SF-295 CNS): 2.64 µM; GI50 (SF-539 CNS): 1.89 µM; TGI (SF-539 CNS): 5.47 µM; GI50 (SK-MEL-2 melanoma): 1.8 µM; TGI (SK-MEL-2 melanoma): 4.57 µM; GI50 (SK-MEL-28 melanoma): 2.6 µM; TGI (SK-MEL-28 melanoma): 11.3 µM; GI50 (SK-MEL-5 melanoma): 1.18 µM; TGI (SK-MEL-5 melanoma): 2.44 µM; GI50 (SK-OV-3 ovarian): 1.98 µM; TGI (SK-OV-3 ovarian): 4.55 µM; GI50 (SN12C renal): 1.76 µM; TGI (SN12C renal): 6.6 µM; GI50 (SNB-19 CNS): 1.93 µM; TGI (SNB-19 CNS): 6.97 µM; GI50 (SNB-75 CNS): 1.21 µM; TGI (SNB-75 CNS): 3.17 µM; GI50 (SW-620 colon): 2.06 µM; TGI (SW-620 colon): 10.5 µM; GI50 (T-47D breast): 0.885 µM; TGI (T-47D breast): 4.07 µM; GI50 (TK-10 renal): 1.78 µM; TGI (TK-10 renal): 5.03 µM; GI50 (U251 CNS): 1.41 µM; TGI (U251 CNS): 3.19 µM; GI50 (UACC-62 melanoma): 1.24 µM; TGI (UACC-62 melanoma): 3.75 µM; GI50 (UO-31 renal): 1.65 µM; TGI (UO-31 renal): 5.64 µM
